This is an account of results in publication PMC8743659, “C1632 suppresses the migration and proliferation of non‐small‐cell lung cancer cells involving LIN28 and FGFR1 pathway” (Journal of Cellular and Molecular Medicine, 2021).

Data set [1] deals with A549R cells. Description: Cell cycle distribution analysis (flow cytometry). Format: cell-based, human. As to conditions: A549R, 15, 30 and 60 mg/L, 5 days, dose-dependent. The method, then: Cells were cultured in the absence or presence of 15, 30, and 60 mg/L of C1632 or 0.01% DMSO for 5 days, trypsinized, washed, and stained with propidium iodide before cell cycle distribution was assessed on a flow cytometer (BD FACSCalibur, BD Biosciences).
(In flow cytometry, cells or beads pass a laser one at a time.)

For the next data set, the system named is LIN28. The experiment in a line: qPCR of LIN28 mRNA in NSCLC cells. It counts as cell-based, human. As to conditions: A549 and A549R cells, 15, 30 and 60 mg/L, 5 days; especially in A549R. The method, then: Total RNA was extracted using RNAiso Plus (Takara) according to the manufacturer's instructions. cDNA was synthesized using PrimeScript II first‐strand cDNA Synthesis Kit (Takara), followed by amplification with RealStar Power SYBR Mixture (GenStar). miRNAs were quantified using the stem‐loop method, and U6 snRNA was adopted as internal control. Specific primer sequences were designed as previously reported.[40] qPCR was carried out with a LightCycler 480 Real‐Time PCR system (Roche). Data were analysed using the comparative Ct (2−ΔΔCt) method.[41] All experiments were performed in three independent experiments. qPCR primers for mRNA detection were as follows: GAPDH‐forward 5′‐[…]‐3′; GAPDH‐reverse 5′‐[…]‐3′; LIN28A‐forward 5′‐[…]‐3′; LIN28A‐reverse 5′‐GCGGTCATGGACA GGAAGCC‐3′; LIN28B‐forward 5′‐[…]‐3′; LIN28B‐reverse 5′‐[…]‐3′.
(In general: Real-time PCR tracks product formation cycle by cycle.)

In data set [2] the test system is A549R cells. Description: Edu staining assay. Particulars: A549R, 15, 30 or 60 mg/L, 5 days, dose-dependent. It counts as cell-based, human. How it is done: (§1) Edu staining assay was carried out according to Edu staining Kit (Beyotime). First, A549 or A549R cells were seeded in 6‐well plates and cultured in RPMI medium 1640 containing 10% FBS, then treated with C1632 (15, 30, or 60 mg/L) for 5 days. Subsequently, cells were incubated with Edu for 3 h, fixed with 4% paraformaldehyde for 15 min, and permeated with 0.3% Triton X‐100 for another 15 min. Then cells were incubated with the Click Reaction Mixture provided by Edu staining Kit for 30 min at room temperature in dark and then stained with DAPI. Finally, the stained cells were scanned and imaged under Nikon Ti microscope.

Another data set deals with A549 cells. The experiment in a line: Edu staining assay. It counts as cell-based, human. As to conditions: A549, 15, 30 or 60 mg/L, 5 days, dose-dependent. The method, then:
as §1

The target of a further data set is T1, CYP2C11 (Rattus norvegicus, UniProt P08683).
T1 construct: 3.4 mg/ml pooled rat liver microsomes; from tissue; host or cells: pooled rat liver microsomes
T1 sequence (P08683 1-500): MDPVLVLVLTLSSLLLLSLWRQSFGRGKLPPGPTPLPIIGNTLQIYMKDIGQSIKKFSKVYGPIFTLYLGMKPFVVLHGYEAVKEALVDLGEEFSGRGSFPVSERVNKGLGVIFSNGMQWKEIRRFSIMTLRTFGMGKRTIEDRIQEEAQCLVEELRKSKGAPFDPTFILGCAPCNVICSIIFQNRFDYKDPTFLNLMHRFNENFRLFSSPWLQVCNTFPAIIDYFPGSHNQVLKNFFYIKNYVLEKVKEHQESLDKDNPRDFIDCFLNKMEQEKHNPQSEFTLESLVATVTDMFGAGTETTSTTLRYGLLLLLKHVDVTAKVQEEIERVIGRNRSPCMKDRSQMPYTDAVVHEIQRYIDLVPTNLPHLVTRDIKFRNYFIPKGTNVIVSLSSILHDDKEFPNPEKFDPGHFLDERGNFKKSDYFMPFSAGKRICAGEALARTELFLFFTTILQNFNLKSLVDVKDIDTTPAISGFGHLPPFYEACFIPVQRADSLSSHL
The experiment in a line: Microsomal incubation (cocktail) assay, rat liver microsomes. It counts as in vitro ADME. As to conditions: 100 μM C1632, probe 250 μM tolbutamide, 30 min, 37°C. How it is done:
(§2) The microsomal incubation assay[41] was performed at 37°C in a 200 μl incubation system, which consisted of 3.4 mg/ml pooled rat liver microsomes, 100 μM C1632, and probe substrates (5 μM CYP3A2‐midazolam; 10 μM CYP2D1‐dextromethorphan; 250 μM CYP2C11‐tolbutamide; 10 μM CYP2B1‐bupropion; and 0.1 M Tris–HCl [pH 7.4]). After 5 min of incubation, 1 mM NADPH was added, and the assay was terminated after 30 min by cooling at −80°C. Next, 0.2 ml acetonitrile and 20 μl IS (100 ng/ml) were added to the reactant. Finally, the solution was thoroughly vortexed and centrifuged at 12,000 rpm for 10 min. The supernatant was analysed by UHPLC‐MS/MS.[42]
Background: Liver microsomes are a subcellular fraction often used to study metabolism.

The target of a further data set is T2, CYP3A2 (Rattus norvegicus, UniProt P05183).
T2 construct: 3.4 mg/ml pooled rat liver microsomes; from tissue; host or cells: pooled rat liver microsomes
T2 sequence (P05183 1-504): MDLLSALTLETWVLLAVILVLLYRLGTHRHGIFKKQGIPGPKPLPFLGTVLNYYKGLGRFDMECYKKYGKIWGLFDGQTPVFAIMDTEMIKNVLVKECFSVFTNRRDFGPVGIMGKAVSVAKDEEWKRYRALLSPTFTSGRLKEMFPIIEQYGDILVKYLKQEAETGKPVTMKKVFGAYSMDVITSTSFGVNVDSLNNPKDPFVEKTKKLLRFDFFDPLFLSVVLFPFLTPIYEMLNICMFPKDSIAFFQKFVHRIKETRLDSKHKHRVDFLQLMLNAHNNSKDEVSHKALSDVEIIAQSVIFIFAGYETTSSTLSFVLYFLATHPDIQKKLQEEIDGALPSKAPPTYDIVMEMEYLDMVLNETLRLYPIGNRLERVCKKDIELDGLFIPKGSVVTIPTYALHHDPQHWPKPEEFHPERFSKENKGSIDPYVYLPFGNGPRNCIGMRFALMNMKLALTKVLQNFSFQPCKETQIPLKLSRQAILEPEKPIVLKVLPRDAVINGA
Described as above. It counts as in vitro ADME. As to conditions: 100 μM C1632, probe 5 μM midazolam, 30 min, 37°C. How it is done:
as §2

With `CC(=O)N(C)c1cccc(-c2ccc3nnc(C)n3n2)c1` [C1632], in the data set on A549R cells [1], the cell cycle distribution entry is “arrested A549 and A549R cells at the G0/G1 phase”. In addition, the “LIN28 mRNA levels” value in the data set with LIN28 is given as “decreased”. In addition, the DNA replication result with A549R cells [2] and in the data set with A549 cells was “significant inhibition” in each case. The “effect on CYP2C11 activity” value on CYP2C11 is on record as “significantly inhibit”. The “effect on CYP3A2 activity” value at CYP3A2 was “significantly inhibit”.
